Reference: patent US8557858B2, “(E)-N-(2-amino-phenyl)-3-{1-[4-(l-methyl-1H-pyrazol-4-yl)-benzenesulfonyl]-1H-pyrrol-3-yl}-acrylamide salts” (4SC AG, priority 2008, dated 2013)

Columns and labels:
Format in all cases: physicochemical
Settings in all cases: compared to the known hydrochloride salt
[1] = Dissolution behavior / dissolution velocity of the salts
Solubility of the salt = test: Solubility of the salt
Stability of the salts = test: Stability of the salts

Cc1ccc(S(=O)(=O)O)cc1.Cn1cc(-c2ccc(S(=O)(=O)n3ccc(/C=C/C(=O)Nc4ccccc4N)c3)cc2)cn1 [toluenesulfonate salt, (E)-N-(2-Amino-phenyl)-3-{1-[4-(1-methyl-1H-pyrazol-4-yl)-benzenesulfonyl]-H-pyrrol-3-yl}-acrylamide toluene-4-sulfonate]
dissolution velocity [1]: particularly high | solubility (Solubility of the salt): high | stability (Stability of the salts): enhanced
